Experimental data: patent US12398141B2 (SHANGHAI SYNERGY PHARMACEUTICAL SCIENCES CO., LTD, priority 2019, dated 2025)

What was measured:
[1] = Pharmacokinetic test after intragastric administration; type: in vivo; conditions: Sprague-Dawley, mouse, plasma, po, SD mice, 5 mg/kg intragastric; for AUC(0-t): read-out: Area under the curve (AUC0-24, ng/ml · h); for Cmax: read-out: Plasma concentration (Cmax, ng/ml); for half-life: read-out: half life (T1/2, h) (converted)
Procedure: Drug concentrations of compounds H01, H07, H11, H12, H14, H15, H22, H25, H29, H30, H33, H39 and H44 intragastrically administrated in plasma by using LC/MS/MS method at various time points were determined by using Sprague-Dawley (SD) […], aged 7-8 weeks and weighing […] as test animals. Pharmacokinetic behavior of the compounds of the invention in […] was studied and its pharmacokinetic characteristics were evaluated.
A certain amount of compounds was taken and dissolved in 50% PEG400/water to prepare a uniform solution.
Mice were administered intragastrically with the above compounds with a dosage of 5 mg/kg. Blood (0.2 ml) was taken from orbits before administration and 0.083 h, 0.25 h, 0.5 h, 1.0 h, 2.0 h, 4.0 h, 6.0 h, 8.0 h, 12.0 h and 24.0 h after administration. The blood was placed in anticoagulant tubes containing dipotassium ethylene glycol diethyl ether diamine tetraacetic acid, centrifugated at 6000 rpm at 4° C. for 10 minutes to separate plasma and saved at −80° C.
50 μL plasma at various time was taken and 150 μL acetonitrile solution containing internal standard tolbutamide (Sigma, USA) was added, mixed and stirred for 5 minutes. After centrifugation for 5 minutes at 12,000 rpm, 100 μL supernatant was taken, mixed with 200 μL water, following by sample injection and analysis.
Liquid chromatogram system was LC-20AD UFLC High Performance Liquid Chromatography system. Mass spectrum system was AB Sciex API4000 triple quadrupole mass spectrometer equipped with Electron Spray Ionization (ESI) (Applied Biosystems, Canada). A software for controlling liquid chromatography-mass spectrometry and quantitative analysis was Anna Rust 1.6 (Applied Biosystems, Canada). Pharmacokinetic parameters were analyzed by WinNonlin (version 5.2, Pharsight, Mountain View, […]) non-compartment model.
The test compound was dissolved in dimethyl sulfoxide to prepare a stock solution with a concentration of 1 mg/mL. The solution was diluted with 50% acetonitrile to obtain a series of standard working solutions with concentrations of 10 μg/mL, 3 μg/mL, 1 μg/mL, 0.3 μg/mL, 0.1 μg/mL, 0.03 μg/mL and 0.01 μg/mL, and a series of standard quality control solutions with concentrations of 8 μg/mL, 0.5 μg/mL, 0.03 μg/mL. 5 μL standard solution was mixed with 45 μL blank plasma substrate uniformly to obtain standard solutions of each concentration of a standard curve (1000 ng/mL, 500 ng/mL, 200 ng/mL, 100 ng/mL, 10 ng/mL, 5 ng/mL, 2 and 1 ng/mL) and quality control solutions (plasma samples: 800 ng/mL, 50 and 3 ng/mL).
Internal standard tolbutamide solid powder was dissolved in dimethyl sulfoxide to prepare a 1 mg/mL stock solution. The stock solution was diluted with 100% acetonitrile to obtain 200 ng/mL solution as a protein precipitation solution.

Blast T cell = experiment: Cell proliferation test of IL-2 stimulated Blast T cell; type: cell-based; conditions: Homo sapiens; IL-2 stimulated Blast T cell proliferation, 72 hours
male ICR mice = experiment: Carrageenan-induced paw swelling in mice; type: in vivo; conditions: 10 mg/kg intragastric; for Paw swelling_0.5 h (%): 0.5 h; for Paw swelling rate_1 h (%): 1 h; for Paw swelling rate_2 h (%): 2 h
How it was run: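 Compounds in 4% Tween 80/0.5% HPMC given intragastrically at 10 mg/kg (10 ml/kg); 0.5 h later 20 μL 1% carrageenan injected into the plantar. Paw volume measured before and at 0.5, 1 and 2 h; swelling rate expressed relative to baseline paw volume.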

Sprague-Dawley (SD) mice = experiment: Concanavalin-induced paw swelling in mice; type: in vivo; conditions: 10 mg/kg intragastric; for Paw swelling rate_1 h (%): 1 h; for Paw swelling rate_2 h (%): 2 h; for Paw swelling rate_4 h (%): 4 h; for Paw swelling rate_6 h (%): 6 h
How it was run: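 SD […], 6-7 weeks, 160-180 g, dosed intragastrically with compound in 4% Tween 80/0.5% HPMC. 0.5 h later, 0.1 ml 0.03% concanavalin injected subcutaneously into the plantar. Paw volume measured before modeling and at 1, 2, 4 and 6 h; swelling rate expressed as percent change from pre-dose volume.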

Compound	AUC(0-t) [1]	Cmax [1]	half-life [1]	IC50 (Blast T cell)	Paw swelling_0.5 h (%) (male ICR mice)	Paw swelling rate_1 h (%) (male ICR mice)	Paw swelling rate_2 h (%) (male ICR mice)	Paw swelling rate_1 h (%) (Sprague-Dawley (SD) mice)	Paw swelling rate_2 h (%) (Sprague-Dawley (SD) mice)	Paw swelling rate_4 h (%) (Sprague-Dawley (SD) mice)	Paw swelling rate_6 h (%) (Sprague-Dawley (SD) mice)
COc1nsc(NC(=O)N[C@H]2C[C@@H](N(C)c3c(C#N)cnc4[nH]ccc34)C2)n1 [Compound H29, (cis)-1-(3-((5-cyano-1H-pyrrolo[2,3-b]pyridin-4-yl)(methyl)amino)cyclobutyl)-3-(3-methoxy-1,2,4-thiadiazole-5-yl)urea]	1530 ± 176 ng·h/mL	522 ± 23 ng/mL	4.43 ± 0.32 h	0.016 µM	33.03 ± 4.23%	41.65 ± 2.21%	40.10 ± 4.32%	23.70 ± 1.60%	23.20 ± 2.60%	32.20 ± 3.50%	29.20 ± 3.50%
CC(C)c1nsc(NC(=O)N2C[C@H]3C[C@H](N(C)c4c(C#N)cnc5[nH]ccc45)C[C@H]3C2)n1 [Compound H30, (3aR,5s,6aS)-4-({2-[(3-isopropyl-1,2,4-thiadiazole-5-yl)carbamoyl]-hexahydrocyclopenta[c]pyrrole-5-yl}-methyl-amino)-1H-pyrrolo[2,3-b]pyridin-5-carbonitrile]	923 ± 263 ng·h/mL	433 ± 16 ng/mL	2.47 ± 0.46 h	0.018 µM	33.12 ± 1.38%	43.43 ± 2.12%	44.52 ± 4.37%	24.40 ± 2.40%	25.20 ± 3.40%	26.00 ± 2.30%	24.50 ± 2.30%
CN(C)c1nsc(NC(=O)N2C[C@H]3C[C@H](N(C)c4c(C#N)cnc5[nH]ccc45)C[C@H]3C2)n1 [Compound H33, (3aR,5s,6aS)-4-({2-[(3-dimethylamino-1,2,4-thiadiazole-5-yl)carbamoyl]-hexahydrocyclopenta[c]pyrrole-5-yl}-methyl-amino)-1H-pyrrolo[2,3-b]pyridin-5-carbonitrile]	1820 ± 173 ng·h/mL	440 ± 89 ng/mL	8.64 ± 0.23 h	0.023 µM	30.78 ± 2.62%	31.76 ± 1.86%	41.75 ± 5.67%	27.80 ± 2.00%	29.20 ± 3.10%	30.10 ± 2.90%	30.10 ± 2.90%
N#Cc1cnc2[nH]ccc2c1N1CC2CN(C(=O)NCC(F)(F)F)CC21 (stereo not shown) [Compound H39, 6-(5-cyano-1H-pyrrolo[2,3-b]pyridin-4-yl)-N-(2,2,2-trifluoroethyl)-3,6-diazabicyclo[3.2.0]heptane-3-carboxamide]	1560 ± 230 ng·h/mL	574 ± 64 ng/mL	4.65 ± 0.15 h	0.015 µM	30.45 ± 1.74%	26.44 ± 3.68%	38.99 ± 5.58%	31.10 ± 2.30%	25.60 ± 4.00%	26.30 ± 3.30%	25.30 ± 3.30%
CN(c1c(C#N)cnc2[nH]ccc12)[C@H]1C[C@@H]2CN(C(=O)Nc3nc(OCC(C)(C)N)ns3)C[C@@H]2C1 [Compound H44, (3aR,5s,6aS)-5-((5-cyano-1H-pyrrolo[2,3-b]pyridin-4-yl)(methyl)amino)-N-(3-(2-amino-2-methyl-propoxy)-1,2,4-thiadiazole-5-yl)hexahydrocyclopentadiene[c]pyrrole-2(1H)-carboxamide]	1680 ± 120 ng·h/mL	619 ± 39 ng/mL	4.17 ± 0.45 h	0.014 µM	31.03 ± 2.43%	42.65 ± 2.21%	41.56 ± 3.32%	23.80 ± 1.60%	24.80 ± 2.50%	24.20 ± 2.90%	23.50 ± 2.90%
